Assay [1] deals with ovariectomized osteoporosis rat model. Briefly: H&E staining of right tibias. Format: in vivo, SD rats. To be noted: right tibia, 12 weeks of intervention treatment. The protocol: 1, the construction of ovariectomized rats models: SD rats are kept in a clean environment under a controlled room temperature at 25±2° C. and alternates 12/12 light and dark every day, and the SD rats feed freely. After one week adaptive feeding, randomly select 8 female rats, anesthetize them with 1% (v/v) pentobarbital sodium (40 mg/kg BW), and remove a little fat near ovaries. The remaining 40 rats are ovariectomized after being anesthetized with pentobarbital sodium. The recovery situation is observed in a 4-week recovery period, and their weight changes are detected. These are prepared by the applicant in advance. (any research about metabolic fingerprint changes of ovariectomized osteoporotic rats after intervention with bone peptide have not been reported according to the existing literature). 2, animal grouping and samples collection: the 8 female rats with a little fat near ovaries removed are selected as a sham-operated group, the ovariectomized 40 rats are randomly divided into 5 groups with 8 rats in each group, and are named by a negative control group, a positive control group, a low-concentration treatment group, a medium-concentration treatment group and a high-concentration treatment group. The rats are perfused by different solutions of bovine bone peptide (diluted by ultrapure water, and sterilized) with concentration of 100 mg/kg, 200 mg/kg, and 500 mg/kg according to the weights of the rats. The rats in the negative control group are perfused with equal volume of ultrapure sterile water (a perfusing volume is generally 1-2 mL/100 g BW), and the rats in the positive control group are perfused with 50 μg/kg of 17β-estradiol (ES). Observe weight changes of the rats and measure the weights every two weeks. After perfusing experiment, the rats are sacrificed in accordance with the animal welfare operating procedures, femurs and tibias on both sides are taken, and soft tissues such as muscle and fascia attached to bone tissues are removed. The right tibias are subjected to paraffin-embedded H&E staining treatment after fixing in a phosphate-formalin buffer for 24 hours for morphometric analysis of the tibias of the rats. Left femurs and right femurs is soaked with normal saline, washed repeatedly for 3 times, wrapped with medical gauzes (pre-soaked with normal saline) and tinfoil, and then stored in a −20° C. refrigerator for trabecular bone microstructure (micro-CT scanning) and mechanical strength tests of bone biomechanical indexes (three-point bending test). […]

The test system is the same in assay [2]. Put plainly: non-targeted serum metabolomics (UPLC/Q-TOF-MS). To be noted: ES group vs Model group. Format: in vivo, SD rats. The protocol:
1, the construction of ovariectomized rats models: SD rats are kept in a clean environment under a controlled room temperature at 25±2° C. and alternates 12/12 light and dark every day, and the SD rats feed freely. After one week adaptive feeding, randomly select 8 female rats, anesthetize them with 1% (v/v) pentobarbital sodium (40 mg/kg BW), and remove a little fat near ovaries. The remaining 40 rats are ovariectomized after being anesthetized with pentobarbital sodium. The recovery situation is observed in a 4-week recovery period, and their weight changes are detected. These are prepared by the applicant in advance. (any research about metabolic fingerprint changes of ovariectomized osteoporotic rats after intervention with bone peptide have not been reported according to the existing literature).
2, animal grouping and samples collection: the 8 female rats with a little fat near ovaries removed are selected as a sham-operated group, the ovariectomized 40 rats are randomly divided into 5 groups with 8 rats in each group, and are named by a negative control group, a positive control group, a low-concentration treatment group, a medium-concentration treatment group and a high-concentration treatment group. The rats are perfused by different solutions of bovine bone peptide (diluted by ultrapure water, and sterilized) with concentration of 100 mg/kg, 200 mg/kg, and 500 mg/kg according to the weights of the rats. The rats in the negative control group are perfused with equal volume of ultrapure sterile water (a perfusing volume is generally 1-2 mL/100 g BW), and the rats in the positive control group are perfused with 50 μg/kg of 17β-estradiol (ES). Observe weight changes of the rats and measure the weights every two weeks.
Urine is automatically collected with a metabolic cage for 12 hours every 4 weeks (the urine is collected as much as possible under the premise of ensuring normal signs of the rats). 1 mmol/L NaN3 solution is added into collected urine as a preservative, the collected urine is placed in a centrifuge at 4° C. and centrifuged at a speed of 10000×g for 10 minutes, and the supernatant is collected, distributed and stored in a refrigerator at −80° C. for determining. The rats are fasted for 12 hours at 4th week, 8th week, and 12th week. Fasted rats are anesthetized by intraperitoneal injection of pentobarbital sodium (40 mg/kg BW) with a volume concentration of 1%, and are subjected to blood collection from the abdominal aorta (the blood is collected as much as possible under the premise of ensuring normal signs of the rats). Collected blood is placed at 4° C. for 3 h and is centrifuged (5000 rpm) for 10 minutes. Upper serum is collected (collecting 2 mL of blood, separating into 4 tubes after separating the serum), is divided into 0.5 mL EP tubes, and stored in a refrigerator at −80° C. for later use. The metabolic cage comprises a cage body with a bottom and a metabolite collecting part. The metabolite collecting part is arranged below the cage body and comprises a barrel 1 and a cover 2 mounted on an upper end of a peripheral wall of a first side of the barrel, an upper end of a peripheral wall of a second side of the barrel is provided with a drainage port, and a solid-liquid separating part is arranged in the barrel. The solid-liquid separating part comprises an arc-shaped partition plate 3 with a first end fixed with a peripheral wall of the barrel and multi-stage filter plates 4, which divide an inner space of the barrel into a first accommodating space and a second accommodating space. The multi-stage filter plates are arranged in the second accommodating space along a vertical direction, and the multi-stage filter plates are successively arranged end to end to form a folded-line diversion channel. A depth of a bottom wall of the barrel from the first side to the second side becomes larger. […]

The structures appear in SMILES notation.

Regarding `C[C@]12CC[C@@H]3c4ccc(O)cc4CC[C@H]3[C@@H]1CC[C@@H]2O` [ES, 17β-estradiol], in assay [1], the trabecular bone area result is reported as “significantly increased”, the trabecular bone connection entry is reported as “tighter”, the trabecular bone spacing entry is on record as “smaller” and the trabecular bone width entry is listed as “wider”. In assay [2], the “serum 1-O-(cis-9-octadecenyl)-2-O-acetyl-sn-glycerol-3-phosphocholine change” value is on record as “up-regulated trend”, the “serum 1-oleoyl-sn-glycerol-3-phosphocholine change” value is recorded as “up-regulated trend”, the “serum 1-palmitoyl-sn-glycerol-3-phosphocholine change” value is on record as “up-regulated trend” and the “serum 1-stearoyl-sn-glycerol-3-phosphocholine change” value is given as “up-regulated trend”. In assay [2], the “serum L-palmitoyl change” value is listed as “up-regulated trend”, the “serum L-pyroglutamic acid change” value was “down-regulated trend”, the serum isoleucine-arginine change entry was “down-regulated trend” and the “serum pantothenic acid change” value is listed as “up-regulated trend”.

The record behind these values is patent US20220308068A1, “BIOMARKER IN OSTEOPOROSIS INTERVENTION THERAPY BY BONE PEPTIDE, SCREENING METHOD AND USE THEREOF” (Institute of Food Science and Technology, Chinese Academy …, priority 2019, published 2022).
